Measured values published in ChEMBL document CHEMBL5724803, “Viability screening in matched tumor and normal assay results for EUbOPEN Chemogenomics Library” (2024).

Test system: Colon organoid
Format: functional, Homo sapiens

Row | Structure (SMILES) | Cell Viability Ratio
1 | COc1cc(N[C@@H]2CCCC[C@]2(O)C(F)(F)F)ccc1F [BAY-9897] | 0.9982
2 | O=c1nc(-c2ccccn2)sc2ccccc12 [BTZO-1] | 0.8779
3 | O=C1c2ccc(Nc3ccc(F)cc3F)cc2CCc2ccc(OC[C@H](O)CO)cc21 [Skepinone-L] | 1.035
4 | CCOC(=O)c1cc2cc(-c3cc(C(=O)NCc4ccc(C(=O)O)cc4)nn3C)ccc2[nH]1 [BI 4394] | 0.9253
5 | CC(C)(O)c1cncc(-c2nc3ccc(F)cc3n2C2CC2)c1 [MSD-CYP11B2] | 0.9895
6 | CCCCNc1ncc(-c2ccc(CN3CCOCC3)cn2)c(N[C@H]2CC[C@H](O)CC2)n1 | 1.102
7 | CCC(=N\O)/C(C)=C/c1ccc(F)c(C)c1 [A-226] | 1.032
8 | O=C(NCc1ncc(C(F)(F)F)cc1Cl)c1ccc2c(c1)C1(CCS(=O)(=O)CC1)[C@H](C1CC1)N2S(=O)(=O)c1ccc(F)cc1 [BAY-784] | 0.9106
9 | O=C(Nc1cccnn1)N1CC(C/C=C/c2cncc(Oc3ccc(C(F)(F)F)cn3)n2)C1 | 0.9954
10 | CO[C@@H](C)c1c(Nc2ccc([C@@H](N(C)C(=O)C3CCS(=O)(=O)CC3)C(F)(F)F)cc2)cnc2cc(Cl)nn12 [NVS-MALT1-C] | 1.209
11 | CN(C)[C@@H]1CCN(c2cc(-c3ccccc3)nc3ccnn23)C1 [(R)-ZINC-3573] | 0.9989
12 | Nc1cnc(N2CCc3cc(S(=O)(=O)Nc4c(F)cc(Cl)cc4F)cc(N4CCCC4=O)c32)nc1 [TP-020n] | 1.046
13 | COc1cccc(CNC(=O)c2nc3scc(CN(C)Cc4ccccc4)c3c(=O)[nH]2)c1 [T-26f] | 1.048
14 | Cc1ccc(-c2cnc([C@@]3(O)CC[C@H](C(=O)O)C(C)(C)C3)s2)cc1Nc1cccc(C(F)(F)F)n1 [MRL-SYKi-NC] | 1.002
15 | CNC(=O)c1ccccc1Nc1cc(Nc2ccc(N3CCOCC3)cc2OC)ncc1C(F)(F)F [VS-4718] | 0.4552
